Test results from US10851110B2, “Heterocyclic inhibitors of PTPN11” (priority 2016, dated 2020).

System: BT474 human breast carcinomas cell line
Test: In Vivo Tumor Models: BT474 xenograft
Settings: BT474 (HER2+) xenograft in CB-17/SCID mice, 100 mg/kg once per day oral gavage, 5 days on/2 days off, 4 weeks
Source text: Xenografts were initiated with BT474 human breast carcinomas cell line and maintained by serial subcutaneous transplantation in CB-17/SCID mice (Charles River). On the day of tumor implant, each test mouse received a 1 mm^3 BT474 fragment implanted subcutaneously in the right flank, and tumor growth was monitored as the average size approached the target range of 100 to 150 mm3. About three weeks post-implantation, the animals were randomized and grouped based on tumor volume and mouse body weight. […] Tumors were measured in two dimensions using calipers, and volume was calculated using the formula: Tumor Volume (mm^3)=w^2×l/2.

With CC1(N)CCN(c2cnc3c(-c4cccc(Cl)c4Cl)n[nH]c3n2)CC1 [Example 1, 1-(3-(2,3-dichlorophenyl)-1H-pyrazolo[3,4-b]pyrazin-6-yl)-4-methylpiperidin-4-amine] the “tolerability (body weight)” value was “tolerated dose” and the tumor growth was “significant suppression of tumor growth”.
